Data taken from US7947717B2 (priority 2008, dated 2011).
Like-named read-outs stand apart in the source and are kept apart here.

Legend:
[1] = molecular target: lethal factor (LF) (Bacillus anthracis, UniProt P15917); experiment: biochemical; type: biochemical
[2] = molecular target: human MDR1 ABCB1/Pgp (Homo sapiens, UniProt P08183)
[3] = test system: HepG2 cells; details: human
[4] = rat
[5] = physchem; details: 23 °C, pH 7.4, aqueous with cosolvent or surfactant or cyclodextrin, kinetic from dmso stock
[6] = in vitro; details: rat, hepatocytes, pH 7.4
[7] = in vitro; details: s9
[8] = molecular target: hERG (Homo sapiens, UniProt Q12809); experiment: in vitro
[9] = molecular target: human CYP 2C19 (Homo sapiens, UniProt P33261); experiment: biochemical
[10] = molecular target: human CYP2D6 (Homo sapiens, UniProt P10635); experiment: biochemical
[11] = molecular target: T1, human CYP1A2 (Homo sapiens, UniProt P05177); experiment: biochemical
T1 sequence (P05177 1-516): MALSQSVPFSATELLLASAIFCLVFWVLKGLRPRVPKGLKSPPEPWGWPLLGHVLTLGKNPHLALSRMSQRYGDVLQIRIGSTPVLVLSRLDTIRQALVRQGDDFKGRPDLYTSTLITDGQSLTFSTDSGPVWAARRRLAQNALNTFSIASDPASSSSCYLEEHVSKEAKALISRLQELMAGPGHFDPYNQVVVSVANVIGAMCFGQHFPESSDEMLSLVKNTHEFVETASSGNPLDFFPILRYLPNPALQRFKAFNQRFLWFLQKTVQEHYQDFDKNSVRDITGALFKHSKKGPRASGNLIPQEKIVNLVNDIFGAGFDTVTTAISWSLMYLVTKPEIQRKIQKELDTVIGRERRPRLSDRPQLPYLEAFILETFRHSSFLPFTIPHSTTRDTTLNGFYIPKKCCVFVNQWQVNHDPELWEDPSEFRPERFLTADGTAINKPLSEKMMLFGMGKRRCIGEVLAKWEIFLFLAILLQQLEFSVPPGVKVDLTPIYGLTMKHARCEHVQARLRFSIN

[12] = molecular target: human CYP2C9 (Homo sapiens, UniProt P11712); experiment: biochemical
[13] = molecular target: BoNT A (Clostridium botulinum, UniProt P0DPI0); experiment: biochemical
[14] = molecular target: T2, MMP-2 (Homo sapiens, UniProt P08253); experiment: MMP-2 assay (Anaspec kit); type: biochemical
T2 construct: purchased Anaspec, Inc. 71151/71155
T2 sequence (P08253 110-660): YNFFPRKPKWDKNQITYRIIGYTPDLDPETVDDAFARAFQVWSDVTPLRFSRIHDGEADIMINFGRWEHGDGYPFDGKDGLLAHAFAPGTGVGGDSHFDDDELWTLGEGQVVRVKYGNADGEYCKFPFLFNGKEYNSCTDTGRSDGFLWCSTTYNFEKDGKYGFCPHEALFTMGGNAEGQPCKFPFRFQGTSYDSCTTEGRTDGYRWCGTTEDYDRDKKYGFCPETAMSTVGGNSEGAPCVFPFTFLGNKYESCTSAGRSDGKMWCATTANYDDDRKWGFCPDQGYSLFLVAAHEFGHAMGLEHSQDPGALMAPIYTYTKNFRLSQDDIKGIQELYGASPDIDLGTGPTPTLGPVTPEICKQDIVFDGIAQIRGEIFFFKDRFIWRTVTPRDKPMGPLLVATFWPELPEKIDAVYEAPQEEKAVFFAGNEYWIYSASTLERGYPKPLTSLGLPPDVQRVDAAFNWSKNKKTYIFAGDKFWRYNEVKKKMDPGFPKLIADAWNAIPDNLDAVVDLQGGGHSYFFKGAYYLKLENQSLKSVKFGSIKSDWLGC

[15] = molecular target: T3, MMP-9 (Homo sapiens, UniProt P14780); experiment: MMP-9 assay (Anaspec kit); type: biochemical
T3 construct: purchased Anaspec, Inc. 71151/71155

[16] = test system: RAW 264.7 cells; type: cell-based, Murine
[17] = test system: Bacillus anthracis Sterne spores; parameters: species or system A/J mice; details: mouse, in vivo
[18] = rat, hepatocytes
[19] = not given; remark: listed apart in the source
[20] = molecular target: human CYP3A4 (Homo sapiens, UniProt P08684); experiment: biochemical
[21] = molecular target: LF metalloproteinase (Bacillus anthracis, UniProt P15917); details: read-out: Ki of LF metalloproteinase activity; cited from earlier work
[22] = read-out: IC50 (μM) of selected LF compounds (Table 7)

Chain of human CYP2C9 (P11712 whole entry): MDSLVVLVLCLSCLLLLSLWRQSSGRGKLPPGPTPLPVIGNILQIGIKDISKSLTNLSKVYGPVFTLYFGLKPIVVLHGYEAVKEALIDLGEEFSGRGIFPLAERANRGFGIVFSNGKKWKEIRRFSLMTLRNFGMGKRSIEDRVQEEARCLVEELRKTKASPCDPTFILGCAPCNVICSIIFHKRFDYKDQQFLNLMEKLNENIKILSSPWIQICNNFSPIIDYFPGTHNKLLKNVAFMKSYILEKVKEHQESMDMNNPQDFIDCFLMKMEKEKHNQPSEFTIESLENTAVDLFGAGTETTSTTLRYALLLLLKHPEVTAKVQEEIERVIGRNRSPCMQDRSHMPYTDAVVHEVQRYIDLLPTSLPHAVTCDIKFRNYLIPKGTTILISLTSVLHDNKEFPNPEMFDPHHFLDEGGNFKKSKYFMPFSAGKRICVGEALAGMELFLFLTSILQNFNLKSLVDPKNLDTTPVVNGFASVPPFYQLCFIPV
Chain of human CYP2D6 (P10635 whole entry): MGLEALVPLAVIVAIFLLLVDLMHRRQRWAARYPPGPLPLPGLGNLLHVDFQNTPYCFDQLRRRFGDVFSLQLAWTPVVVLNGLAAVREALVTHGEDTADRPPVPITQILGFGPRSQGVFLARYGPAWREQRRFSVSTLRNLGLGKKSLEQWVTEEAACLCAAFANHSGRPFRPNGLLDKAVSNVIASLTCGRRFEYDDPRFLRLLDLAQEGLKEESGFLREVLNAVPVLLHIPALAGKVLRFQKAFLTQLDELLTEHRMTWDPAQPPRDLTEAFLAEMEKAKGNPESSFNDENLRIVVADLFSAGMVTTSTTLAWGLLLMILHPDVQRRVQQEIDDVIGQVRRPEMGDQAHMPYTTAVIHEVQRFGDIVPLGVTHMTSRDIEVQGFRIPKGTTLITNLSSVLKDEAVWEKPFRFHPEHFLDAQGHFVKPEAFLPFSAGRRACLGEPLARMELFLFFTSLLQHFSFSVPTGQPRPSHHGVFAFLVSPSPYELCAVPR
Chain of human CYP 2C19 (P33261 whole entry): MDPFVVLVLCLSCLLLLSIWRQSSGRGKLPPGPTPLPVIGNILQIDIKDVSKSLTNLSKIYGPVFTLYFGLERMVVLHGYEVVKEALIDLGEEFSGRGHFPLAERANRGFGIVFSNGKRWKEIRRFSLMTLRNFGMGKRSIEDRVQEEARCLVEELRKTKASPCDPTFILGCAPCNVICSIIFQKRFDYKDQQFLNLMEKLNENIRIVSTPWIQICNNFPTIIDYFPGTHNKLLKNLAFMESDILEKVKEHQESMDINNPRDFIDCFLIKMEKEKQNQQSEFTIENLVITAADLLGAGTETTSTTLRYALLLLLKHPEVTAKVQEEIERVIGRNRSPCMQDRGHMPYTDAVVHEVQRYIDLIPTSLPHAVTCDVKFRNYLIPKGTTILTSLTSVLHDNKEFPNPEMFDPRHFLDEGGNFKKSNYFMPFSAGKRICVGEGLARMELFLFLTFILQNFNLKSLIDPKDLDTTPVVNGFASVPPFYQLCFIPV
Chain of lethal factor (LF) (P15917 34-809 limits assumed): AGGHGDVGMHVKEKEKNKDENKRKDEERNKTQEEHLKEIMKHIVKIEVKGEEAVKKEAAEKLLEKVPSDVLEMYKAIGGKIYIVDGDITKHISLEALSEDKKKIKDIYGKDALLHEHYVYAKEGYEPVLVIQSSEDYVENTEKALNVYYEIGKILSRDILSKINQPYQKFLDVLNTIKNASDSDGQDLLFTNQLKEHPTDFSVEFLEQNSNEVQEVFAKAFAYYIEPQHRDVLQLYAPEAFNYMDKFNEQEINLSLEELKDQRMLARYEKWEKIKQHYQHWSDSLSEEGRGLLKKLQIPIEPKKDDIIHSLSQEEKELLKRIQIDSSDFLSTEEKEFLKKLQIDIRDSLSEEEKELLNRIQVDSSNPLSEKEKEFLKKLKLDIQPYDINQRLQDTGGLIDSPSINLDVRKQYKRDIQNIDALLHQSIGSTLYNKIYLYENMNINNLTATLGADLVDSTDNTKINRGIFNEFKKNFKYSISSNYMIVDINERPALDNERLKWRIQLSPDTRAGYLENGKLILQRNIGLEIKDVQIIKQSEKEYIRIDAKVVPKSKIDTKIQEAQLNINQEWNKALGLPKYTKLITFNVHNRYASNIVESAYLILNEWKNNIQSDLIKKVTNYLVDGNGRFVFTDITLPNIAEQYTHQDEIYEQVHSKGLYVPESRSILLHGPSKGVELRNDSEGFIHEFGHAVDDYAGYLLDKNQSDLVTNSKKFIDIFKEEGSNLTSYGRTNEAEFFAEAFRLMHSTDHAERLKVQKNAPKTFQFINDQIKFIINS
Chain of hERG (Q12809 whole entry): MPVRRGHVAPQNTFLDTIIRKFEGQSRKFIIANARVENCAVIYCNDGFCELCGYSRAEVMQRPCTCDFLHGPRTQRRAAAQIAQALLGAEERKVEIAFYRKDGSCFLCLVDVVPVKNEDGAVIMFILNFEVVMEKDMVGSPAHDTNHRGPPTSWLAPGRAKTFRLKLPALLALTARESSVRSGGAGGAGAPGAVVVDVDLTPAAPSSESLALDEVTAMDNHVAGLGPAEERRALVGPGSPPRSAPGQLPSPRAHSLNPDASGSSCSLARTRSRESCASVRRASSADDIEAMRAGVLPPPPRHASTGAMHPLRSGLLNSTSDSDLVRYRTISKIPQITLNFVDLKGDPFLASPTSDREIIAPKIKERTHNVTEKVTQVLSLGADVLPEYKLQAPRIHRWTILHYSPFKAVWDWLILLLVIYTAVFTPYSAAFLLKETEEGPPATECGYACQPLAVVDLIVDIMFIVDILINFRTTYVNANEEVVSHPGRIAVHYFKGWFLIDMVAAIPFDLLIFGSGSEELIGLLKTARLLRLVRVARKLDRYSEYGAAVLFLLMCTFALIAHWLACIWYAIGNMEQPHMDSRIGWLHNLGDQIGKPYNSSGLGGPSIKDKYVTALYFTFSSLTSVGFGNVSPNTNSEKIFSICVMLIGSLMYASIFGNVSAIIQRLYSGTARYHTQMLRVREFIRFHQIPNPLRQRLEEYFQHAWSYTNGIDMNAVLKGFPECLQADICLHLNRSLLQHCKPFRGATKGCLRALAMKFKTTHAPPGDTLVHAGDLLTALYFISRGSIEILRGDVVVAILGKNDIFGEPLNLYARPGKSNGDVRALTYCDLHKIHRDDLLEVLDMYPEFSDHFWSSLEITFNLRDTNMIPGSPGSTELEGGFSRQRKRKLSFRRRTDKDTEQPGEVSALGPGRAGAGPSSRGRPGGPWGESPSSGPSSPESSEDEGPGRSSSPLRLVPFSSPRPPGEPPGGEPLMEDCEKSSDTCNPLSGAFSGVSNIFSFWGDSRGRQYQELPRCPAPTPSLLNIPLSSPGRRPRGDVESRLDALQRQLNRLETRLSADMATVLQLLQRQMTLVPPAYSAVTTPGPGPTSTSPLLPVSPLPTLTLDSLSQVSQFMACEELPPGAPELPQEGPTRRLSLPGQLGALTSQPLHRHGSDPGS
T3 sequence (P14780 107-707 limits assumed): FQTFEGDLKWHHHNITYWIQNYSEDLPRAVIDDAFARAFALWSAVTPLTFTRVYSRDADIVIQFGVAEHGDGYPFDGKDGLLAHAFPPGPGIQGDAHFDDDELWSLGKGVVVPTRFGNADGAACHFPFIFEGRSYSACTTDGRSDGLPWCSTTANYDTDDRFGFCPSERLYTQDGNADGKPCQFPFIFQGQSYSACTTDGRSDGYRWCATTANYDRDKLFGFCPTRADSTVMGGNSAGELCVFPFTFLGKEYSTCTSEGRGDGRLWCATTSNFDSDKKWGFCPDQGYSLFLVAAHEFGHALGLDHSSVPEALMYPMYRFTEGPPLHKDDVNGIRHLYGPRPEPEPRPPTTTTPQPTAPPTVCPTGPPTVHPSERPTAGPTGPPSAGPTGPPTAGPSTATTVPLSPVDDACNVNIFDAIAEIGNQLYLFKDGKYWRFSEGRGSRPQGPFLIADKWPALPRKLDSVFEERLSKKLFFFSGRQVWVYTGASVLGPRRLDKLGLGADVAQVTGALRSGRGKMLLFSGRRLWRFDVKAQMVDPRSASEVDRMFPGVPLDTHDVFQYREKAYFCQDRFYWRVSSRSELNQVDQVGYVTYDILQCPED
Chain of LF metalloproteinase (P15917 34-809 limits assumed): as the sequence (P15917 34-809 limits assumed) above

O=C(O)CN1C(=O)/C(=C/c2ccc(-c3cc(C(F)(F)F)ccc3Cl)o2)SC1=S [Compound 65]
IC50 [1, 22]: 0.19 µM | IC50 [2]: > 100 µM | Cytox. (c) Cytotoxicity against HepG2 cells [3]: Nontoxic up to 100 μM | Plasma Stab. T = 30 min (l) [4]: 82% | solubility kinetic [5]: < 10 µg/mL | half-life [6]: 42.4 min | hepatocyte CLint [6]: 19.8 µL/min/1e6 cells | half-life [7]: 37.3 min | hepatocyte CLint [7]: 25 | inhibition at 30 µM [8]: 45% | IC50 [9]: > 100 µM | IC50 [10]: > 100 µM | IC50 [11]: 20.5 µM | IC50 [12]: > 100 µM

O=C(O)CN1C(=O)/C(=C/c2cn(-c3ccc(Cl)cc3)nc2-c2ccc(Cl)cc2)SC1=S [Compound 34, (Z)-2-(5-((1,3-bis(4-chlorophenyl)-1H-pyrazol-4-yl)methylene)-4-oxo-2-thioxothiazolidin-3-yl)acetic acid]
IC50 ([1]; pH 7.4, read-out: LF IC50): 2.95 µM | IC50 [13]: 8.18 µM | inhibition of MMP-2 (in words) [14]: did not inhibit | inhibition of MMP-9 (in words) [15]: did not inhibit | protection of macrophages from LF/PA-induced cell death [16]: protect macrophages from LF/PA-induced cell death | survival compared to control group (in words, FIG. 3) [17]: survived significantly better than control

O=C(O)CN1C(=O)/C(=C/c2ccc(-c3ccc(Cl)c(Cl)c3)o2)SC1=S [Compound 64]
IC50 [1, 22]: 0.26 µM | Cytox. (c) Cytotoxicity against HepG2 cells [3]: Nontoxic up to 100 μM | Pampa (d) permeability class: Med. | Met. Stab. t1/2 (k) [18]: Degraded | Plasma Stab. T = 30 min (l) [4]: 79% | Liver S9 Stab t1/2 (m) [19]: Degraded | solubility kinetic [5]: < 10 µg/mL | inhibition at 30 µM [8]: 67% | IC50 [9]: 36.9 µM | IC50 [10]: 47.6 µM | IC50 [11]: 2.79 µM | IC50 [20]: > 50 µM | IC50 [12]: > 50 µM

COc1ccc(-c2ccc(/C=C3\SC(=S)N(CC(=O)O)C3=O)o2)cc1Cl [Compound 1]
IC50 [1]: 0.29 µM | Cytox. (c) Cytotoxicity against HepG2 cells [3]: Nontoxic up to 100 μM | Plasma Stab. T = 30 min (l) [4]: 90% | solubility kinetic [5]: < 10 µg/mL | half-life [6]: 37.1 min | hepatocyte CLint [6]: 21.6 µL/min/1e6 cells | half-life [7]: 128 min | hepatocyte CLint [7]: 5.6 | inhibition at 30 µM [8]: 58% | IC50 [9]: 31.3 µM | IC50 [10]: 30.5 µM | IC50 [11]: 20.9 µM | IC50 [12]: 28.3 µM

CNC(=O)[C@H](Cc1c[nH]c2ccccc12)NC(=O)[C@@H](CC(=O)NO)CC(C)C [GM6001]
Ki [21]: ~5 µM

O=C(O)CN1C(=O)/C(=C/c2ccc(-c3cccs3)s2)SC1=S [Compound 66, (Z)-2-(4-oxo-5-((5-(thiophen-2-yl)thiophen-2-yl)methylene)-2-thioxothiazolidin-3-yl)acetic acid]
IC50 [1, 22]: 2.3 µM | Cytox. (c) Cytotoxicity against HepG2 cells [3]: Nontoxic up to 100 μM | Pampa (d) permeability class: Med. | Met. Stab. t1/2 (k) [18]: Degraded | Plasma Stab. T = 30 min (l) [4]: 90% | Liver S9 Stab t1/2 (m) [19]: Degraded | solubility kinetic [5]: < 10 µg/mL | inhibition at 30 µM [8]: 29% | IC50 [12]: > 100 µM
